Measurements: patent publication US20250000881A1, “TREATMENT OF TREATMENT RESISTANT […] PSILOCYBIN” (COMPASS […], priority 2021, published 2025)

System: adult subjects with TRD
Experiment: Phase 2b randomised double-blind trial in TRD: MADRS total score, response, remission, sustained response
Format: in vivo, human
Settings: for Protocol-defined sustained response (MADRS response criteria from week 3 until week 12): up to week 12
Protocol: Studies with more rigorous designs are needed to better the therapeutic potential of psilocybin in treatment-resistant depression (TRD). The aim of this study was to assess the effectiveness of 3 different doses of psilocybin (1 mg, 10 mg, and 25 mg) in TRD.
This was a Phase 2b, international multicentre, randomized, fixed dose, double-blind trial. The study population included adult men and women, 18 years of age and older, with TRD. […] Augmentation counts as a second treatment, provided it was approved for the adjunctive treatment of MDD in that country.
The treatment period was determined the optimal therapeutic dose; 233 subjects were randomised in an approximately 1:1:1 ratio to receive 1 mg psilocybin (79 subjects), 10 mg psilocybin (75 subjects), or 25 mg psilocybin (79 subjects). Average patient baseline MADRS values were 31.9 in the 25 mg group, 33.0 in the 10 mg group, and 32.7 in the 1 mg group. This represents moderate to severe depression (≥31=cut-off for severe depression based on MADRS).
The primary objective of this study was to evaluate the efficacy of psilocybin (25 mg or 10 mg) compared to 1 mg, administered under supportive conditions to adult subjects with TRD, in improving depressive symptoms, as assessed by the change in the Montgomery-Asberg Depression Rating Scale (MADRS) total score from baseline. Baseline is defined as the assessment score obtained on Day-1. The primary time point is week 3; this variable was analyzed for the change from Baseline to day 1, and weeks 1, 3, 6, 9, and 12 of the study.
Additional objectives of this study were to assess the efficacy of psilocybin compared to 1 mg psilocybin on the: • (a) proportion of subjects with response defined as a ≥50% decrease in MADRS total score from baseline to week 3. This was assessed at day 1 and at weeks 1, 6, 9, and 12 of the study. • (b) proportion of subjects who have a sustained response at week 12. Sustained response is defined as the proportion of patients fulfilling response criteria at any visit up to and including week 3, that also fulfils response criteria at all subsequent visits up to and including week 12. Response is defined as ≥50% decrease in MADRS total score from baseline.
Subjects were randomized to the appropriate therapy after it was confirmed at baseline (Visit 2) that the subject remained eligible to participate in the study. Randomization was stratified by country. Each subject was assigned 1 treatment bottle containing 5 capsules packaged in a double-blind fashion, depending on the randomized treatment arm, the bottle will contain 1 of the following: • (a) 10-mg treatment bottle: 2×5-mg capsules and 3×placebo capsules; • (b) 25-mg treatment bottle: 5×5-mg capsules; or • (c) 1-mg treatment bottle: 1×1-mg capsule and 4×placebo capsules.
The change from baseline in MADRS total score at week 3 will be evaluated with a mixed effects model for repeated measures analysis. The model includes treatment, visit, study site, prior psychedelic experience, treatment by visit interaction, subject as a random effect, and baseline MADRS total score. Comparison of the psilocybin optimal dose versus 1 mg psilocybin was performed at the 0.05 testing level. A sensitivity analysis was performed on the primary mixed model repeated measures model adding treatment by study site or country interaction into the model. If it was significant (at the 10% level), then further investigations of sites were performed.
[…] additional efficacy endpoints that are dichotomous variables (proportion of subjects who are responders, remitters, and sustained responders) were analyzed using the Cochran Mantel Haenszel chi square test, stratified by country, to compare the psilocybin optimal therapeutic dose versus 1 mg psilocybin. A stepdown procedure to correct for multiplicity was employed. […]

SMILES: CN(C)CCc1c[nH]c2cccc(OP(=O)(O)O)c12 [COMP360, psilocybin]
- MADRS total score change from baseline, LS mean (1 mg (N = 79), Day 2): −9.0
- MADRS total score change from baseline, LS mean (1 mg (N = 79), Week 1): −6.8
- MADRS total score change from baseline, LS mean (1 mg (N = 79), Week 3): −5.5
- MADRS total score change from baseline, LS mean (1 mg (N = 79), Week 6): −6.3
- MADRS total score change from baseline, LS mean (1 mg (N = 79), Week 9): −5.4
- MADRS total score change from baseline, LS mean (1 mg (N = 79), Week 12): −6.0
- Sustained response (MADRS response at week 3 and week 12 and at least one of week 6 and week 9) (1 mg group): 10.1%
- Protocol-defined sustained response (MADRS response criteria from week 3 until week 12) (1 mg group): 10.1%
- MADRS total score change from baseline, LS mean (10 mg (N = 75), Day 2): −12.0
- MADRS total score change from baseline, LS mean (10 mg (N = 75), Week 1): −9.1
- MADRS total score change from baseline, LS mean (10 mg (N = 75), Week 3): −7.9
- MADRS total score change from baseline, LS mean (10 mg (N = 75), Week 6): −6.0
- MADRS total score change from baseline, LS mean (10 mg (N = 75), Week 9): −6.1
- MADRS total score change from baseline, LS mean (10 mg (N = 75), Week 12): −5.7
- MADRS total score change from baseline, LS mean diff vs 1 mg (10 mg vs 1 mg, Day 2): −3.0
- MADRS total score change from baseline, LS mean diff vs 1 mg (10 mg vs 1 mg, Week 1): −2.2
- MADRS total score change from baseline, LS mean diff vs 1 mg (10 mg vs 1 mg, Week 3): −2.4
- MADRS total score change from baseline, LS mean diff vs 1 mg (10 mg vs 1 mg, Week 6): 0.3
- MADRS total score change from baseline, LS mean diff vs 1 mg (10 mg vs 1 mg, Week 9): −0.7
- MADRS total score change from baseline, LS mean diff vs 1 mg (10 mg vs 1 mg, Week 12): 0.3
- MADRS total score change from baseline, LS mean (25 mg (N = 79), Day 2): −15.0
- MADRS total score change from baseline, LS mean (25 mg (N = 79), Week 1): −13.1
- MADRS total score change from baseline, LS mean (25 mg (N = 79), Week 3): −12.0
- MADRS total score change from baseline, LS mean (25 mg (N = 79), Week 6): −11.7
- MADRS total score change from baseline, LS mean (25 mg (N = 79), Week 9): −9.4
- MADRS total score change from baseline, LS mean (25 mg (N = 79), Week 12): −9.6
- Sustained response (MADRS response at week 3 and week 12 and at least one of week 6 and week 9) (25 mg group): 24.1%
- Protocol-defined sustained response (MADRS response criteria from week 3 until week 12) (25 mg group): 20.3%
- MADRS total score change from baseline, LS mean diff vs 1 mg (25 mg vs 1 mg, Day 2): −5.9
- MADRS total score change from baseline, LS mean diff vs 1 mg (25 mg vs 1 mg, Week 1): −6.3
- MADRS total score change from baseline, LS mean diff vs 1 mg (25 mg vs 1 mg, Week 3 (primary endpoint)): −6.6
- MADRS total score change from baseline, LS mean diff vs 1 mg (25 mg vs 1 mg, Week 6): −5.3
- MADRS total score change from baseline, LS mean diff vs 1 mg (25 mg vs 1 mg, Week 9): −4.0
- MADRS total score change from baseline, LS mean diff vs 1 mg (25 mg vs 1 mg, Week 12): −3.6
